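Where inhibition never reached the appropriate level, the endpoint shown equals the highest concentration tested. Otherwise, values were interpolated linearly from a five-concentration, 48-hour dose response in 96-well plates. The concentration for 50% growth inhibition is given as GI50. Definition used: TGI = concentration required for complete inhibition of growth.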
Legend:
Test in all cases: inhibition of tumour cell growth, NCI panel, 48 h
[1] = test system: NCI/ADR-RES ovarian
[2] = test system: RXF 393 renal
[3] = test system: SK-MEL-5 melanoma
[4] = test system: LOX IMVI melanoma
[5] = test system: SF-268 CNS
[6] = test system: MDA-MB-435
[7] = test system: RPMI-8226 leukemia
[8] = test system: T-47D breast
[9] = test system: NCI-H226 lung
[10] = test system: HCC-2998 colon
[11] = test system: HCT-15 colon
[12] = test system: HCT-116 colon
[13] = test system: HS 578T breast
[14] = test system: CAKI-1 renal
[15] = test system: TK-10 renal
[16] = test system: HOP-62 NSCLC
[17] = test system: NCI-H522 lung
[18] = test system: NCI-H23 lung
[19] = test system: MDA-MB-231 breast
[20] = test system: SNB-19 CNS
[21] = test system: U251 CNS
[22] = test system: SK-MEL-2 melanoma
[23] = test system: NCI-H460 lung
[24] = test system: SN12C renal
[25] = test system: 786-0 renal
[26] = test system: DU-145 prostate
[27] = test system: UO-31 renal
[28] = test system: MDA-MB-468 breast
[29] = test system: SK-OV-3 ovarian
[30] = test system: BT-549 breast
[31] = test system: KM12 colon
[32] = test system: PC-3 prostate
[33] = test system: MOLT-4 leukemia
[34] = test system: OVCAR-5 ovarian
[35] = test system: EKVX NSCLC
[36] = test system: COLO 205 colon
[37] = test system: OVCAR-8 ovarian
[38] = test system: SF-295 CNS
[39] = test system: UACC-257 melanoma
[40] = test system: HOP-92 NSCLC
[41] = test system: UACC-62 melanoma
[42] = test system: SK-MEL-28 melanoma
[43] = test system: SF-539 CNS
[44] = test system: K-562 leukemia
[45] = test system: ACHN renal
[46] = test system: M14 melanoma
[47] = test system: OVCAR-3 ovarian
[48] = test system: MCF7 breast
[49] = test system: HT29 colon
[50] = test system: MALME-3M melanoma
[51] = test system: A498 renal
[52] = test system: OVCAR-4 ovarian
[53] = test system: CCRF-CEM leukemia
[54] = test system: IGROV1 ovarian
[55] = test system: HL-60(TB) leukemia
[56] = test system: SNB-75 CNS
[57] = test system: SR leukemia

`Cn1cc(-c2cc3nc(-c4c[nH]c5ccccc45)cc(N)n3n2)c2cc(Cl)ccc21` was tested, and the GI50 [1] was 2.46 µM, the TGI [1] was 6.8 µM and the GI50 [2] was 1.87 µM. The TGI [2] was 3.81 µM, the GI50 [3] was 1.98 µM and the TGI [3] was 4.09 µM. For the same compound, the GI50 [4] was 1.71 µM, the TGI [4] was 3.15 µM and the GI50 [5] was 2.16 µM. For the same compound, the TGI [5] was 5.44 µM, the GI50 [6] was 1.79 µM and the TGI [6] was 3.32 µM. The GI50 [7] was 2.94 µM, the TGI [7] was 9.18 µM and the GI50 [8] was 1.76 µM. It also gave a TGI [8] of 3.82 µM, a GI50 [9] of 16.9 µM and a TGI [9] of 44 µM. For the same compound, the GI50 [10] was 1.87 µM, the TGI [10] was 3.5 µM and the GI50 [11] was 1.62 µM. For the same compound, the TGI [11] was 3.35 µM, the GI50 [12] was 1.75 µM and the TGI [12] was 3.24 µM. For the same compound, the GI50 [13] was 2.38 µM, the TGI [13] was 6.49 µM and the GI50 [14] was 1.66 µM. For the same compound, the TGI [14] was 3.2 µM, the GI50 [15] was 2.03 µM and the TGI [15] was 5.36 µM. For the same compound, the GI50 [16] was 2.12 µM, the TGI [16] was 5.31 µM and the GI50 [17] was 1.75 µM. It also gave a TGI [17] of 3.75 µM, a GI50 [18] of 2.26 µM and a TGI [18] of 5.58 µM. The GI50 [19] was 2.31 µM, the TGI [19] was 5.24 µM and the GI50 [20] was 3.29 µM. The TGI [20] was 13.8 µM, the GI50 [21] was 1.8 µM and the TGI [21] was 3.61 µM. It also gave a GI50 [22] of 2.11 µM, a TGI [22] of 4.63 µM and a GI50 [23] of 2.36 µM. The TGI [23] was 5.56 µM, the GI50 [24] was 1.9 µM and the TGI [24] was 4.15 µM. For the same compound, the GI50 [25] was 1.64 µM, the TGI [25] was 3.12 µM and the GI50 [26] was 3.62 µM. The TGI [26] was 13.4 µM, the GI50 [27] was 1.72 µM and the TGI [27] was 3.25 µM. The GI50 [28] was 1.62 µM, the TGI [28] was 3.37 µM and the GI50 [29] was 2.24 µM. It also gave a TGI [29] of 5.62 µM, a GI50 [30] of 12.9 µM and a TGI [30] of 32.2 µM. The GI50 [31] was 1.99 µM, the TGI [31] was 4.24 µM and the GI50 [32] was 2.97 µM. It also gave a TGI [32] of 9.37 µM, a GI50 [33] of 2.71 µM and a TGI [33] of 11.1 µM. For the same compound, the GI50 [34] was 1.81 µM, the TGI [34] was 4.22 µM and the GI50 [35] was 2.12 µM. It also gave a TGI [35] of 6.03 µM, a GI50 [36] of 1.89 µM and a TGI [36] of 3.59 µM. It also gave a GI50 [37] of 2.23 µM, a TGI [37] of 5.07 µM and a GI50 [38] of 1.78 µM. For the same compound, the TGI [38] was 3.53 µM, the GI50 [39] was 1.68 µM and the TGI [39] was 3.25 µM. The GI50 [40] was 1.99 µM, the TGI [40] was 4.1 µM and the GI50 [41] was 1.8 µM. For the same compound, the TGI [41] was 3.51 µM, the GI50 [42] was 1.7 µM and the TGI [42] was 3.12 µM. It also gave a GI50 [43] of 1.73 µM, a TGI [43] of 3.19 µM and a GI50 [44] of 2.26 µM. The TGI [44] was 6.3 µM, the GI50 [45] was 1.75 µM and the TGI [45] was 3.41 µM. For the same compound, the GI50 [46] was 1.77 µM, the TGI [46] was 3.36 µM and the GI50 [47] was 2.23 µM. The TGI [47] was 4.76 µM, the GI50 [48] was 1.66 µM and the TGI [48] was 3.31 µM. The GI50 [49] was 1.93 µM, the TGI [49] was 3.99 µM and the GI50 [50] was 1.7 µM. It also gave a TGI [50] of 3.26 µM, a GI50 [51] of 3.16 µM and a TGI [51] of 11.1 µM. The GI50 [52] was 1.82 µM, the TGI [52] was 3.49 µM and the GI50 [53] was 4.4 µM. The TGI [53] was over 100 µM, the GI50 [54] was 2.53 µM and the TGI [54] was 7.62 µM. It also gave a GI50 [55] of 1.94 µM, a TGI [55] of 5.01 µM and a GI50 [56] of 1.52 µM. For the same compound, the TGI [56] was 3.06 µM, the GI50 [57] was 2.61 µM and the TGI [57] was 9.11 µM.

— PubChem BioAssay (NCI)
